Assay results taken from US10059701B2 (Merck Patent GmbH, priority 2015, dated 2018).

What was measured:
IRAK1 = target: T1, IRAK1 (Homo sapiens, UniProt P51617); assay: IRAK1 enzymatic assay (ADP-Glo luminescence); assay type: biochemical; settings: purified human recombinant His-TEV-IRAK1 (194-712)
T1 construct: His-TEV-IRAK1 (194-712); His (N); TEV cleavage site (N)
Method in brief: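 Luminescent ADP-Glo read-out of ATP turnover by purified His-TEV-IRAK1 (194-712) at 0.3 μg/ml after a 2-hour RT reaction. Compounds, serially diluted from 10 μM to 0.5 nM, were preincubated with enzyme 15 minutes in Hepes pH 7.0 buffer with MgCl2, DTT, EGTA and Triton X-100.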

IRAK4 = target: T2, IRAK4 (Homo sapiens, UniProt Q9NWZ3); assay: IRAK4 enzymatic assay (ADP-Glo luminescence); assay type: biochemical; settings: purified human recombinant His-TEV-IRAK4 (1-460), ATP 2 μM
T2 construct: His-TEV-IRAK4 (1-460); His (N); TEV cleavage site (N)
T2 sequence (Q9NWZ3 1-460): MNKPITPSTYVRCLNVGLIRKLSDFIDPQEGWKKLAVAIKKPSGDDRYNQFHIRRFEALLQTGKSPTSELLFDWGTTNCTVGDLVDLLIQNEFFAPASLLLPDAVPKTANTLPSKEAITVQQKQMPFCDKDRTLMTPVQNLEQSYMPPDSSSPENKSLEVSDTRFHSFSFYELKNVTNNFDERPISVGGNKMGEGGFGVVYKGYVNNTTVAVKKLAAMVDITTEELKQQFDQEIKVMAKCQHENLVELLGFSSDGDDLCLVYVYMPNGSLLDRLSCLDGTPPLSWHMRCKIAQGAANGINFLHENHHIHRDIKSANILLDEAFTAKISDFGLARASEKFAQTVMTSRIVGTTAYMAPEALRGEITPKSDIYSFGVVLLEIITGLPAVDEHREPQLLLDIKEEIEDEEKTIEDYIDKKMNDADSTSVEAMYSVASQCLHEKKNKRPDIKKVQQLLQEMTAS
Method in brief: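 ADP-Glo luminescence read-out after a 2 h RT kinase reaction with 2 μM ATP and 300 nM biotinylated STK1 peptide. Enzyme (His-TEV-IRAK4 1-460, 0.3 μg/ml) first incubated 15 min with serially diluted compounds (10 μM–0.5 nM) in 50 mM Hepes pH 7.0, 10 mM MgCl2, 5 mM MnCl2.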

T1 sequence (P51617 194-712): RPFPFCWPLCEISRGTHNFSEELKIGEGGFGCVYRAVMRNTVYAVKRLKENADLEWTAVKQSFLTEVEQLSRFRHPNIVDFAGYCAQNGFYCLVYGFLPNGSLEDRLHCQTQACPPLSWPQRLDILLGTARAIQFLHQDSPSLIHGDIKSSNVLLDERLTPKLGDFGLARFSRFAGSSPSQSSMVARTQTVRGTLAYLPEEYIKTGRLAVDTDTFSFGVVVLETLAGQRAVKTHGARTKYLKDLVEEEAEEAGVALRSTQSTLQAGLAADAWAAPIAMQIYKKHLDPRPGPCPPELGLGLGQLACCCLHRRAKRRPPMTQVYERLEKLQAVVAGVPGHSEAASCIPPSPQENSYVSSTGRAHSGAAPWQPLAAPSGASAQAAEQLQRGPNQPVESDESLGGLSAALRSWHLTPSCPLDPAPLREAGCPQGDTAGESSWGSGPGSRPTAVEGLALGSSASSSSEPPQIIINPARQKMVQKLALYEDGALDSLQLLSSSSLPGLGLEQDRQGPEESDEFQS

## C[S+]([O-])CCCCn1/c(=N/C(=O)c2cccc(C(F)F)c2)[nH]c2cc(N3CCOCC3=O)ccc21 (stereo not shown) [Compound 88]
IRAK1
  IC50: 100 to 1000 nM
IRAK4
  IC50: ≤ 100 nM

## CSCCCCn1/c(=N/C(=O)c2cccc(C(F)F)c2)[nH]c2cc(N3CCOCC3=O)ccc21 [Compound 89, (E)-3-(difluoromethyl)-N-(1-(4-(methylthio)butyl)-5-(3-oxomorpholino)-1H-benzo[d]imidazol-2(3H)-ylidene)benzamide]
IRAK1
  IC50: > 1000 nM
IRAK4
  IC50: 100 to 1000 nM

## CS(=O)(=O)CCCn1/c(=N/C(=O)c2cccc(C(F)F)c2)[nH]c2cc(N3CCOCC3=O)ccc21 [Compound 90, (E)-3-(difluoromethyl)-N-(1-(3-(methylsulfonyl)propyl)-5-(3-oxomorpholino)-1H-benzo[d]imidazol-2(3H)-ylidene)benzamide]
IRAK1
  IC50: ≤ 100 nM
IRAK4
  IC50: ≤ 100 nM

## C[S+]([O-])CCCn1/c(=N/C(=O)c2cccc(C(F)F)c2)[nH]c2cc(N3CCOCC3=O)ccc21 (stereo not shown) [Compound 91, (E)-3-(difluoromethyl)-N-(1-(3-(methylsulfinyl)propyl)-5-(3-oxomorpholino)-1H-benzo[d]imidazol-2(3H)-ylidene)benzamide]
IRAK1
  IC50: 100 to 1000 nM
IRAK4
  IC50: ≤ 100 nM

## CSCCCn1/c(=N/C(=O)c2cccc(C(F)F)c2)[nH]c2cc(N3CCOCC3=O)ccc21 [Compound 92, (E)-3-(difluoromethyl)-N-(1-(3-(methylthio)propyl)-5-(3-oxomorpholino)-1H-benzo[d]imidazol-2(3H)-ylidene)benzamide]
IRAK1
  IC50: 100 to 1000 nM
IRAK4
  IC50: ≤ 100 nM

## CS(=O)(=O)CCn1/c(=N/C(=O)c2cccc(C(F)F)c2)[nH]c2cc(N3CCOCC3=O)ccc21 [Compound 93, (E)-3-(difluoromethyl)-N-(1-(2-(methylsulfonyl)ethyl)-5-(3-oxomorpholino)-1H-benzo[d]imidazol-2(3H)-ylidene)benzamide]
IRAK1
  IC50: ≤ 100 nM
IRAK4
  IC50: ≤ 100 nM

## C[S+]([O-])CCn1/c(=N/C(=O)c2cccc(C(F)F)c2)[nH]c2cc(N3CCOCC3=O)ccc21 (stereo not shown) [Compound 94, (E)-3-(difluoromethyl)-N-(1-(2-(methylsulfinyl)ethyl)-5-(3-oxomorpholino)-1H-benzo[d]imidazol-2(3H)-ylidene)benzamide]
IRAK1
  IC50: 100 to 1000 nM
IRAK4
  IC50: ≤ 100 nM

## CNS(=O)(=O)c1cccc(C(=O)/N=c2\[nH]c3cc(N4CCOCC4=O)ccc3n2CCCO)c1 [Compound 97, (E)-N-(1-(3-hydroxypropyl)-5-(3-oxomorpholino)-1H-benzo[d]imidazol-2(3H)-ylidene)-3-(N-methylsulfamoyl)benzamide]
IRAK1
  IC50: ≤ 100 nM
IRAK4
  IC50: ≤ 100 nM

## NS(=O)(=O)c1cccc(C(=O)/N=c2\[nH]c3cc(N4CCOCC4=O)ccc3n2CCCO)c1 [Compound 100, (E)-N-(1-(3-hydroxypropyl)-5-(3-oxomorpholino)-1H-benzo[d]imidazol-2(3H)-ylidene)-3-sulfamoylbenzamide]
IRAK1
  IC50: ≤ 100 nM
IRAK4
  IC50: ≤ 100 nM

## CN(C)S(=O)(=O)c1cccc(C(=O)/N=c2\[nH]c3cc(N4CCOCC4=O)ccc3n2CCCO)c1 [Compound 101, (E)-3-(N,N-dimethylsulfamoyl)-N-(1-(3-hydroxypropyl)-5-(3-oxomorpholino)-1H-benzo[d]imidazol-2(3H)-ylidene)benzamide]
IRAK1
  IC50: 100 to 1000 nM
IRAK4
  IC50: ≤ 100 nM

## O=C(/N=c1\[nH]c2cc(N3CCOCC3=O)ccc2n1CCCO)c1ccc2nc[nH]c2c1 [Compound 102, (E)-N-(1-(3-hydroxypropyl)-5-(3-oxomorpholino)-1H-benzo[d]imidazol-2(3H)-ylidene)-1H-benzo[d]imidazole-6-carboxamide]
IRAK1
  IC50: > 1000 nM
IRAK4
  IC50: > 1000 nM

## CC(F)(F)c1cccc(C(=O)/N=c2\[nH]c3cc(N4CCOCC4=O)ccc3n2CCCO)c1 [Compound 103, (E)-3-(1,1-difluoroethyl)-N-(1-(3-hydroxypropyl)-5-(3-oxomorpholino)-1H-benzo[d]imidazol-2(3H)-ylidene)benzamide]
IRAK1
  IC50: 100 to 1000 nM
IRAK4
  IC50: ≤ 100 nM

## O=C(/N=c1\[nH]c2cc(N3CCOCC3=O)ccc2n1CCCO)c1cccc(CF)c1 [Compound 104, (E)-3-(fluoromethyl)-N-(1-(3-hydroxypropyl)-5-(3-oxomorpholino)-1H-benzo[d]imidazol-2(3H)-ylidene)benzamide]
IRAK1
  IC50: 100 to 1000 nM
IRAK4
  IC50: ≤ 100 nM

## Cc1cccc(C(=O)/N=c2\[nH]c3cc(N4CCOCC4=O)ccc3n2CCCO)c1 [Compound 105, (E)-N-(1-(3-hydroxypropyl)-5-(3-oxomorpholino)-1H-benzo[d]imidazol-2(3H)-ylidene)-3-methylbenzamide]
IRAK1
  IC50: 100 to 1000 nM
IRAK4
  IC50: ≤ 100 nM

## O=C(/N=c1\[nH]c2cc(N3CCOCC3=O)ccc2n1CCCO)c1cccc(Cl)c1 [Compound 106, (E)-3-chloro-N-(1-(3-hydroxypropyl)-5-(3-oxomorpholino)-1H-benzo[d]imidazol-2(3H)-ylidene)benzamide]
IRAK1
  IC50: 100 to 1000 nM
IRAK4
  IC50: ≤ 100 nM

## O=C(/N=c1\[nH]c2cc(N3CCOCC3=O)ccc2n1CCCO)c1cccc(-c2cc[nH]c(=O)c2)c1 [Compound 107, (E)-N-(1-(3-hydroxypropyl)-5-(3-oxomorpholino)-1H-benzo[d]imidazol-2(3H)-ylidene)-3-(2-oxo-1,2-dihydropyridin-4-yl)benzamide]
IRAK1
  IC50: ≤ 100 nM
IRAK4
  IC50: ≤ 100 nM

## O=C(/N=c1\[nH]c2cc(N3CCNCC3=O)ccc2n1CCCO)c1cccc(C(F)(F)F)c1 [Compound 108, (E)-N-(1-(3-hydroxypropyl)-5-(2-oxopiperazin-1-yl)-1H-benzo[d]imidazol-2(3H)-ylidene)-3-(trifluoromethyl)benzamide]
IRAK1
  IC50: ≤ 100 nM
IRAK4
  IC50: ≤ 100 nM

## O=C(/N=c1\[nH]c2cc(N3CCNCC3=O)ccc2n1CCCO)c1cccc(C(F)F)c1 [Compound 109, (E)-3-(difluoromethyl)-N-(1-(3-hydroxypropyl)-5-(2-oxopiperazin-1-yl)-1H-benzo[d]imidazol-2(3H)-ylidene)benzamide]
IRAK1
  IC50: 100 to 1000 nM
IRAK4
  IC50: ≤ 100 nM

## CC(=O)N1CCN(c2ccc3c(c2)[nH]/c(=N\C(=O)c2cccc(C(F)F)c2)n3CCCO)C(=O)C1 [Compound 110, (E)-N-(5-(4-acetyl-2-oxopiperazin-1-yl)-(1-(3-hydroxypropyl)-1H-benzo[d]imidazol-2(3H)-ylidene))-3-(difluoromethyl)benzamide]
IRAK1
  IC50: ≤ 100 nM
IRAK4
  IC50: ≤ 100 nM

## CN1CCN(c2ccc3c(c2)[nH]/c(=N\C(=O)c2cccc(C(F)F)c2)n3CCCO)C(=O)C1 [Compound 111, (E)-3-(difluoromethyl)-N-(1-(3-hydroxypropyl)-5-(4-methyl-2-oxopiperazin-1-yl)-1H-benzo[d]imidazol-2(3H)-ylidene)benzamide]
IRAK1
  IC50: 100 to 1000 nM
IRAK4
  IC50: ≤ 100 nM

## O=C(/N=c1\[nH]c2cc(N3CCN(CC4CC4)CC3=O)ccc2n1CCCO)c1cccc(C(F)F)c1 [Compound 112, (E)-N-(5-(4-(cyclopropylmethyl)-2-oxopiperazin-1-yl)-1-(3-hydroxypropyl)-1H-benzo[d]imidazol-2(3H)-ylidene)-3-(difluoromethyl)benzamide]
IRAK1
  IC50: ≤ 100 nM
IRAK4
  IC50: ≤ 100 nM

## O=C(/N=c1\[nH]c2cc(N3CCN(CC(F)(F)F)CC3=O)ccc2n1CCCO)c1cccc(C(F)F)c1 [Compound 113, (E)-3-(difluoromethyl)-N-(1-(3-hydroxypropyl)-5-(2-oxo-4-(2,2,2-trifluoroethyl)piperazin-1-yl)-1H-benzo[d]imidazol-2(3H)-ylidene)benzamide]
IRAK1
  IC50: 100 to 1000 nM
IRAK4
  IC50: ≤ 100 nM

## O=C(/N=c1\[nH]c2cc(N3CCOCC3=O)ccc2n1C1(CCO)CCCCC1)c1cccc(C(F)(F)F)c1 [Compound 114, (E)-N-(1-(1-(2-hydroxyethyl)cyclohexyl)-5-(3-oxomorpholino)-1H-benzo[d]imidazol-2(3H)-ylidene)-3-(trifluoromethyl)benzamide]
IRAK1
  IC50: > 1000 nM
IRAK4
  IC50: > 1000 nM

## O=C(/N=c1\[nH]c2cc(N3CCOCC3=O)ccc2n1C1(CCO)CCCCC1)c1cccc(C(F)F)c1 [Compound 115, (E)-3-(difluoromethyl)-N-(1-(1-(2-hydroxyethyl)cyclohexyl)-5-(3-oxomorpholino)-1H-benzo[d]imidazol-2(3H)-ylidene)benzamide]
IRAK1
  IC50: > 1000 nM
IRAK4
  IC50: 100 to 1000 nM

## O=C(/N=c1\[nH]c2cc(N3CCOCC3=O)ccc2n1C1CCCC(CO)C1)c1cccc(C(F)(F)F)c1 (stereo not shown) [Compound 120, (E)-N-(1-(3-(hydroxymethyl)cyclohexyl)-5-(3-oxomorpholino)-1H-benzo[d]imidazol-2(3H)-ylidene)-3-(trifluoromethyl)benzamide]
IRAK1
  IC50: 100 to 1000 nM
IRAK4
  IC50: ≤ 100 nM

## O=C(/N=c1\[nH]c2cc(N3CCOCC3=O)ccc2n1C1CCCC(CO)C1)c1cccc(C(F)F)c1 (stereo not shown) [Compound 121, (E)-3-(difluoromethyl)-N-(1-(3-(hydroxymethyl)cyclohexyl)-5-(3-oxomorpholino)-1H-benzo[d]imidazol-2(3H)-ylidene)benzamide]
IRAK1
  IC50: 100 to 1000 nM
IRAK4
  IC50: ≤ 100 nM
